Where two headings read alike, the source gives them in different places.
Experiments:
[1] = Chemical stability at various pH / in acidic PBS (HPLC); assay type: physicochemical
Description: (§1) The main reason for failure in drug development is poor biopharmaceutical properties, which include low aqueous solubility, chemical instability.
(§2) The biopharmaceutical properties of the synthesized M13 (5-glutathione-6-shogaol) were characterized.

[2] = Partition between octanol and aqueous buffer (Log D7.4); assay type: physicochemical; conditions: pH 7.4
Description: as §1, §2

Kinetic solubility = assay type: physicochemical
Description: as §1, §2

[3] = pKa by UV metric at pH 2 to pH 12; assay type: physicochemical
Description: The pKa of a drug influences lipophilicity, solubility, protein binding, and permeability, which in turn directly affects pharmacokinetic (PK) characteristics such as absorption, distribution, metabolism, and excretion.
as §2

SPHK2 = SPHK2 (Homo sapiens, UniProt Q9NRA0); experiment: Radiometric 33P kinase assay, 17 Lipid Kinase Panel; assay type: biochemical; conditions: 20 μM M13, 10 μM ATP; read-out: inhibition of enzyme activity relative to control
Description: It was hypothesized that M13 may target kinases to reduce the inflammatory response. Determination and improvement of the selectivity of a compound by screening a large part of the kinome are of pivotal importance in the discovery of M13 signaling pathways for its anti-inflammatory activities. Radiometric assays were used based on the transfer of ^33P-labeled phosphate from ATP to the kinase substrates found in the 376 Wild Type Kinase Panel and 17 Lipid Kinase Panel (Reaction Biology) and a broad kinase selectivity screen for the inhibitory activity of M13 was performed. Briefly, radiometric assays are based on the transfer of 10 μM ^33P-labelled phosphate from ATP to the kinase substrate. […] FIGS. 2A and 2B show the targeted inhibitor effects of M13 on lipid kinases (FIG. 2A) and protein kinases (FIG. 2B).

[4] = Incubation with mouse intestinal microsomes (HPLC); assay type: in vitro ADME; conditions: mouse, intestinal microsomes; incubation for 30 minutes; read-out: relative content retained of the input
Description: as §2

25 selected targets = experiment: In vitro evaluation of safety and toxicity (InVEST) screening
Protocol: Safety screening of M13 was performed using an in vitro evaluation of safety and toxicity (InVEST). The effects of M13 was tested against 25 selected targets, including factors known to be involved in toxicity in humans.

HIEC-6 cells = experiment: MTT viability assay, 2D culture; assay type: cell-based; conditions: Homo sapiens
Protocol: PBMCs were provided by STEMCELL Technologies (STEMCELL Canada Inc.) and maintained in ImmunoCult™-XF T-cell Expansion Medium (Cat #10981). HIEC-6 cells were maintained in OptiMEM 1 Reduced Serum Medium supplemented with 20 mM HEPES, 10 mM GlutaMAX, 10 ng/mL Epidermal Growth Factor, 4% (v/v) fetal bovine serum (FBS), and 1% penicillin-streptomycin (PS). HCT-116 cells were maintained in ATCC-formulated McCoy's 5a medium, supplemented with 10% (v/v) FBS and 1% PS. Caco-2/BBe cells were grown in DMEM supplemented with 10% (v/v) FBS and 1% PS (v/v). Human colon cancer stem cells (HC-CSC) were maintained in complete growth media with serum and antibiotics (Cat #M36112-39S) from Celprogen Inc. (Torrance, CA, USA).
The […] (MTT) assay was used to study the effects of M13 on the viability of four 2D-cultured human intestinal cell lines (HIEC-6, HCT-116, Caco-2/BBe, and HC-CSC).

[5] = tested on: 3D-cultured Caco-2/BBe cells; experiment: 3D droplet-based cell spheroid model, long-term cytotoxicity; conditions: Homo sapiens, Caco-2, 264 h, 11 days
Protocol: To assess the long-term cytotoxicity of M13 against cancer cells, a 3D droplet-based Caco-2/BBe cell spheroid model was established using 3D printing. The diameter of the 3D cell spheres was approximately 1.65-1.75 mm. The 3D-cultured cells were incubated with different concentrations of M13 for 11 days, and droplet size (calculated using scanned images) and viability (live/dead cell staining and intracellular ATP) were analyzed (FIG. 12C). […] The cell viability of the M13-treated spheres was normalized as a percentage of the negative control (NC, 100% viable, without M13 treatment).

[6] = tested on: cell cycle control/phosphorylation proteins; experiment: Cell Cycle Control Phospho Antibody Array on Caco-2/BBe cell lysates; assay type: cell-based, human; conditions: 24 hours
Protocol: The mechanism by which M13 exerts its anti-cancer effects was explored. Cell lysates of Caco-2/BBe cells incubated for 24 hours with free M13, NL, or M13-NL were hybridized on cancer-related protein array membranes (Proteome Profiler™ Human XL Oncology Array), and cell cycle control/phosphorylation profiling protein antibody microarray slides (Cell Cycle Control Phospho Antibody Array).

Vero cells = conditions: added one-hour post-infection setting
Protocol: Virus and formulations were then left on the cells for the entire duration of the experiment (24 hours). The cytotoxicity of the same range of concentrations of formulations was determined by MTT assay.
The antiviral plates were incubated for 1 hour at 37° C., 5% CO2. The cytotoxicity plates were incubated for 24 hours at 37° C., 5% CO2.
After 24 hours, the infection plates were washed with PBS, fixed for 30 minutes with 4% formaldehyde, washed again with PBS, and stored in PBS at 4° C. until staining. The cytotoxicity plate was treated with MTT to determine cell viability.
Cytotoxicity was detected by MTT assay. Briefly, the MTT reagent (Sigma, M5655) was added to the cells for 2 hours at 37° C., 5% CO2, after which the media was removed, and the precipitate solubilized with a mixture of 1:1 Isopropanol: DMSO for 20 minutes. The supernatant was transferred to a clean plate and signal was read at 570 nm.

[7] = tested on: lung cancer cells (H-1299); conditions: cited from earlier work
[8] = tested on: human normal colon fibroblast cells (CCD-18Co); conditions: cited from earlier work
[9] = tested on: normal lung cells (IMR-90); conditions: cited from earlier work

SPHK2, sequence (Q9NRA0 whole entry): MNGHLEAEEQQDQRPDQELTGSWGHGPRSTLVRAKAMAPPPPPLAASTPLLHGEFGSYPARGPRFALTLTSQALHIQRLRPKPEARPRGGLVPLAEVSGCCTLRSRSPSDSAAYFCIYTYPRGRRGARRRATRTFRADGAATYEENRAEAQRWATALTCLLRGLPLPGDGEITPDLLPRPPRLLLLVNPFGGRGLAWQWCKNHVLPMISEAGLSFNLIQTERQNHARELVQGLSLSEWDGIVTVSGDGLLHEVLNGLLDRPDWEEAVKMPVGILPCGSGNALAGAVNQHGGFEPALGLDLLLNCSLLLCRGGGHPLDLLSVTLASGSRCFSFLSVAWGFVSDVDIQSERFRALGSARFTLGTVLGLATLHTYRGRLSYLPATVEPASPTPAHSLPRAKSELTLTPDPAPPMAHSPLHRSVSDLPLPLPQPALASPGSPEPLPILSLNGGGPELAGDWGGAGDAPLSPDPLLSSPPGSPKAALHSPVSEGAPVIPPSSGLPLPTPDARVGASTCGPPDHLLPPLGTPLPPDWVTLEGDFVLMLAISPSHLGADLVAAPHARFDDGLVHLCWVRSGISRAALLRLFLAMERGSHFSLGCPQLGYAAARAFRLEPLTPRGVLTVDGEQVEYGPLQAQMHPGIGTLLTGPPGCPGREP

For `CCCCCC(CC(=O)CCc1ccc(O)c(OC)c1)SCC(NC(=O)CCC(N)C(=O)O)C(=O)NCC(=O)O` (stereo not shown) [M13, 5-glutathione-6-shogaol], the “relative content of M13 before and after incubation (HPLC)” value ([1]; 37° C., 2 h, acidic PBS (pH=5.0 or 3.0)) was “consistent before and after incubation”, the “stability at various pH levels” value ([1]; pH 2 to pH 10) was “very stable” and the logD [2] was -1.75. The solubility kinetic (Kinetic solubility; Example 1) was over 200 µM, the solubility kinetic (Kinetic solubility; as printed in Example 6) was over 200 µM and the pKa ([3]; read-out: pKa1) was 3.24. For the same compound, the pKa ([3]; read-out: pKa2) was 9.12, the pKa ([3]; read-out: pKa3) was 10.4 and the inhibition at 20 µM (SPHK2) was 30 to 45%. The remaining at 0.5 h [4] was 86%, the “effect on the activities of 25 assorted targets from five target classes” value (25 selected targets) was “did not have any significant effect” and the “inhibition of GPCR targets, ion channel (5-HT3), phosphodiesterase, protease thrombin alpha” value (25 selected targets) was “did not inhibit”. For the same compound, the “modulation of the activity of the nuclear receptor AHR” value (25 selected targets) was “did not significantly modulate”, the IC50 (HIEC-6 cells; HIEC-6) was over 100 µM and the IC50 (HIEC-6 cells; HIEC-6, 24 h) was over 100 µM. The minimal effective concentration ([5]; read-out: M13 concentration at which green fluorescence intensity is significantly lower than NC, live/dead staining) was over 80 µM, the EC50 ([5]; ATP content, extrapolated dose-response curve, read-out: half-maximal effective concentration (EC50)) was 182 µM and the “CDC25A and phosphorylated CDC25A (p-CDC25A) vs control and NL groups” value [6] was “down-regulated”. The toxicity (Vero cells) was “low toxicity”, the bioactivity [7] was “exhibited bioactivity” and the toxicity [8] was “low toxicity”. For the same compound, the toxicity [9] was “low toxicity”.

— US20260285903A1, “SYNTHESIZED BIOLOGICALLY ACTIVE COMPOUNDS AND METHODS OF MAKING AND USING” (Georgia State University Research Foundation, Inc., priority 2023, published 2026)
